Our source for the IC50 values is patent publication US7625908B2, “Quinazoline derivatives” (AstraZeneca AB, priority 2003, dated 2009).

The target in experiment [1] is T1, erbB2 in a MCF7 derived cell line (Clone 24 cells) (Homo sapiens, UniProt P04626).
T1 construct: to give a cell line that overexpresses full length wild type erbB2 protein; expressed in transfected cells
In words: Clone 24 phospho-erbB2 cell assay, Test (d). Format: cell-based. The note with it: 4 hours, read-out: IC50 (μM) Test (d): Inhibition of erbB2 tyrosine kinase protein phosphorylation. The procedure:
d) Clone 24 Phospho-erbB2 Cell Assay
This immunofluorescence end point assay measures the ability of a test compound to inhibit the phosphorylation of erbB2 in a MCF7 (breast carcinoma) derived cell line which was generated by transfecting MCF7 cells with the full length erbB2 gene using standard methods to give a cell line that overexpresses full length wild type erbB2 protein (hereinafter ‘Clone 24’ cells).
Clone 24 cells were cultured in Growth Medium (phenol red free Dulbecco's modified Eagle's medium (DMEM) containing 10% foetal bovine serum, 2 mM glutamine and 1.2 mg/ml G418) in a 7.5% CO2 air incubator at 37° C. Cells were harvested from T75 stock flasks by washing once in PBS (phosphate buffered saline, pH7.4, Gibco No. 10010-015) and harvested using 2 mls of Trypsin (1.25 mg/ml)/ethylaminediaminetetraacetic acid (EDTA) (0.8 mg/ml) solution. The cells were resuspended in Growth Medium. Cell density was measured using a haemocytometer and viability was calculated using Trypan Blue solution before being further diluted in Growth Medium and seeded at a density of 1×10^4 cells per well (in 10 ul) into clear bottomed 96 well plates (Packard, No. 6005182).
3 days later, Growth Medium was removed from the wells and replaced with 100 ul Assay Medium (phenol red free DMEM, 2 mM glutamine, 1.2 mg/ml G418) either with or without erbB inhibitor compound. Plates were returned to the incubator for 4 hours and then 20 μl of 20% formaldehyde solution in PBS was added to each well and the plate was left at room temperature for 30 minutes. This fixative solution was removed with a multichannel pipette, 100 μl of PBS was added to each well and then removed with a multichannel pipette and then 50 μl PBS was added to each well. Plates were then sealed and stored for up to 2 weeks at 4° C.
Immunostaining was performed at room temperature. […]
The Fluorescence signal is each well was measured using an Acumen Explorer Instrument (Acumen Bioscience Ltd.), a plate reader that can be used to rapidly quantitate features of images generated by laser-scanning. […]

A further experiment has as its target T2, erbB2 tyrosine kinase (Homo sapiens, UniProt P04626).
T2 construct: Recombinant intracellular fragments of EGFR, erbB2 and erbB4; made in house; host or cells: baculovirus/Sf21 insect cells (cleared lysate used)
In words: Protein tyrosine kinase phosphorylation assay, Test (a), erbB2. Format: biochemical. The note with it: recombinant intracellular fragment, ATP at Km; read-out: IC50 (μM) Test (a): Inhibition of erbB2 tyrosine kinase protein phosphorylation. The procedure:
(§1) a) Protein Tyrosine Kinase phosphorylation Assays
(§2) This test measures the ability of a test compound to inhibit the phosphorylation of a tyrosine containing polypeptide substrate by an erb receptor tyrosine kinase enzyme.
(§3) Recombinant intracellular fragments of EGFR, erbB2 and erbB4 (accession numbers X00588, X03363 and L07868 respectively) were cloned and expressed in the baculovirus/Sf21 system. Lysates were prepared from these cells by treatment with ice-cold lysis buffer (20 mM N-2-hydroxyethylpiperizine-N′-2-ethanesulfonic acid (HEPES) pH7.5, 150 mM NaCl, 10% glycerol, 1% Triton X-100, 1.5 mM MgCl2, 1 mM ethylene glycol-bis(β-aminoethyl ether) N′,N′,N′,N′-tetraacetic acid (EGTA), plus protease inhibitors and then cleared by centrifugation.
(§4) Constitutive kinase activity of these recombinant proteins was determined by their ability to phosphorylate a synthetic peptide (made up of a random co-polymer of Glutamic Acid, Alanine and Tyrosine in the ratio of 6:3:1). Specifically, Maxisorb™ 96-well immunoplates were coated with synthetic peptide (0.2 μg of peptide in a 200 μl phosphate buffered saline (PBS) solution and incubated at 4° C. overnight). Plates were washed in 50 mM HEPES pH 7.4 at room temperature to remove any excess unbound synthetic peptide. […]
(§5) The immobilised phospho-peptide product of the reaction was detected by immunological methods. […] After further washing, HRP activity in each well of the plate was measured colorimetrically using 22′-Azino-di-[3-ethylbenzthiazoline sulfonate (6)]diammonium salt crystals (ABTS™ from Roche) as a substrate.
(§6) Quantification of colour development and thus enzyme activity was achieved by the measurement of absorbance at 405 nm on a Molecular Devices ThermoMax microplate reader. Kinase inhibition for a given compound was expressed as an IC50 value. […] The range of phosphorylation was calculated from the positive (vehicle plus ATP) and negative (vehicle minus ATP) control values.

Another experiment concerns the target T3, EGFR tyrosine kinase (Homo sapiens, UniProt P00533).
T3 construct: Recombinant intracellular fragments of EGFR, erbB2 and erbB4; made in house; host or cells: baculovirus/Sf21 insect cells (cleared lysate used)
The experiment can be described thus: Protein tyrosine kinase phosphorylation assay, Test (a), EGFR. The note with it: recombinant intracellular fragment, ATP at Km; read-out: IC50 (μM) Test (a): Inhibition of EGFR tyrosine kinase protein phosphorylation. Format: biochemical. The procedure: as §1, §2, §3, §4, §5, §6

T1 sequence (P04626 23-1255): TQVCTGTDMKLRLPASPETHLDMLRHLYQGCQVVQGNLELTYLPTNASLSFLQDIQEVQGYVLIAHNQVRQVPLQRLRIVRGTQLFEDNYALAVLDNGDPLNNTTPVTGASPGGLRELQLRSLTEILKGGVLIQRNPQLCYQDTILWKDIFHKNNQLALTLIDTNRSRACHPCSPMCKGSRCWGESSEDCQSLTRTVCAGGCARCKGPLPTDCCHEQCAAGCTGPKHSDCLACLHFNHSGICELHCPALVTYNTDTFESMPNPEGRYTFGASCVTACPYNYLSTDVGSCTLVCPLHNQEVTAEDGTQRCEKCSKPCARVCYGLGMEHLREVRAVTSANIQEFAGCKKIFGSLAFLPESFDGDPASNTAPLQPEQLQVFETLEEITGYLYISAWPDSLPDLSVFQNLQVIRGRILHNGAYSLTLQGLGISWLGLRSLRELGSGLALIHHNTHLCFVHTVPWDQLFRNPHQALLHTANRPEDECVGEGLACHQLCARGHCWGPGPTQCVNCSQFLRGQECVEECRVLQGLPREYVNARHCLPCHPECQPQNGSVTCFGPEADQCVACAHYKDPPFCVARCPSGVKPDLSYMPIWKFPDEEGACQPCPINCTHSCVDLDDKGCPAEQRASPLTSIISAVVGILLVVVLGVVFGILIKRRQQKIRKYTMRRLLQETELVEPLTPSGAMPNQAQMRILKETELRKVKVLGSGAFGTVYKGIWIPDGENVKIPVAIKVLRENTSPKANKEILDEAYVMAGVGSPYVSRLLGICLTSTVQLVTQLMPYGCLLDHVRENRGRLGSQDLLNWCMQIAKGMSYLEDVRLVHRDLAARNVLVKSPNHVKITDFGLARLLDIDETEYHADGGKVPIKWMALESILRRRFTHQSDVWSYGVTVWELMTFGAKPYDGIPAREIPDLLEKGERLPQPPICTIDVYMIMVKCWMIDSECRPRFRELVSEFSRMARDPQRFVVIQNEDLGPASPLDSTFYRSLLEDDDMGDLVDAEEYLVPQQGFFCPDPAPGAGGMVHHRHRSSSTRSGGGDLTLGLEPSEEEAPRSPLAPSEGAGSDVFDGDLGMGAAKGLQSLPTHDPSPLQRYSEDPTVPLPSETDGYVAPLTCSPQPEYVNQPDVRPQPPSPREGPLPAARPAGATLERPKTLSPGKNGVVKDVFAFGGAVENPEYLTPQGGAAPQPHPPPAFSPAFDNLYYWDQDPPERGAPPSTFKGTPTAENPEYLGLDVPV
T3 sequence (P00533 669-1210 limits assumed): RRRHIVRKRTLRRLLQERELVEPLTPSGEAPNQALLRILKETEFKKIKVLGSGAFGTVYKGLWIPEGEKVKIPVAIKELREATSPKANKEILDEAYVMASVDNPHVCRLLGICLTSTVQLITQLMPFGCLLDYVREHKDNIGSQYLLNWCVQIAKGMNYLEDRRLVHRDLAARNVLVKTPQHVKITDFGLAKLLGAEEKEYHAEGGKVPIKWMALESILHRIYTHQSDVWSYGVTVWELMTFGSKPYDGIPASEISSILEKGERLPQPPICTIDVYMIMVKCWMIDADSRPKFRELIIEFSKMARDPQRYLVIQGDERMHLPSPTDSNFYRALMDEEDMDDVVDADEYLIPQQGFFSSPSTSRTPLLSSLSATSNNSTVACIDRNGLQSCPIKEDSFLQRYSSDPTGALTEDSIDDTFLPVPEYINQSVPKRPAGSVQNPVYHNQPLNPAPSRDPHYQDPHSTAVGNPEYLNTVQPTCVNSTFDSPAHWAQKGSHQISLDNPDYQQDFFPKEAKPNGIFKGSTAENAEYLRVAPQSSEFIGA
T2 sequence (P04626 676-1255 limits assumed): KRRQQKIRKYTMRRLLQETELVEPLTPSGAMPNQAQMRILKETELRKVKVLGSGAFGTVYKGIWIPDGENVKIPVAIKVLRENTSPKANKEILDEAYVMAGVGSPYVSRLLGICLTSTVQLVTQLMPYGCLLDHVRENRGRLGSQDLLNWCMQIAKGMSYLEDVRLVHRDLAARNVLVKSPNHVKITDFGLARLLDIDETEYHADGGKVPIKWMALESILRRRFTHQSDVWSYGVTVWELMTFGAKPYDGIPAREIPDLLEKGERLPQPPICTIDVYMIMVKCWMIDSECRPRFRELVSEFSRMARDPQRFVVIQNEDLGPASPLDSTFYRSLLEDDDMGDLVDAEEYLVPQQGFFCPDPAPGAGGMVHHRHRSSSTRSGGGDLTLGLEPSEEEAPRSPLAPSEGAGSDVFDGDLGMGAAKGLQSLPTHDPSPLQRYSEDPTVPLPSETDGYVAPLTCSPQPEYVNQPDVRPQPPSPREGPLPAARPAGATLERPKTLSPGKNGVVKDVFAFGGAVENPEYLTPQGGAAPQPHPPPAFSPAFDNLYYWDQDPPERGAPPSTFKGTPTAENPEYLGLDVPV

Take `CC(=O)N(C)C[C@@H](C)Oc1cccc2ncnc(Nc3ccc(Oc4ccc(C)nc4)c(C)c3)c12` [Example 104, N-Methyl-N-((2R)-2-{[4-({3-methyl-4-[(6-methylpyridin-3-yl)oxy]phenyl}amino)quinazolin-5-yl]oxy}propyl)acetamide]: the values for the IC50 (in experiment [1]; at erbB2 tyrosine kinase; at EGFR tyrosine kinase) were 0.021 µM, 0.017 µM and 1.88 µM, respectively.
Taken in the same sequence, the figures for `CC(O)C(=O)N(C)CCOc1cccc2ncnc(Nc3ccc(OCc4ccccn4)c(Cl)c3)c12` (stereo not drawn) [Example 28, N-{2-[(4-{[3-Chloro-4-(pyridin-2-ylmethoxy)phenyl]amino}quinazolin-5-yl)oxy]ethyl}-2-hydroxy-N-methylpropanamide] were 0.112 µM, 0.002 µM and 0.197 µM.
As for `O=C(CO)N(CCOc1cccc2ncnc(Nc3ccc(OCc4ccccn4)c(Cl)c3)c12)C1CCOCC1` [Example 21, N-{2-[(4-{[3-Chloro-4-(pyridin-2-ylmethoxy)phenyl]amino}quinazolin-5-yl)oxy]ethyl}-2-hydroxy-N-(tetrahydro-2H-pyran-4-yl)acetamide], the IC50 is 0.009 µM in experiment [1], 0.002 µM at erbB2 tyrosine kinase and 0.414 µM at EGFR tyrosine kinase.
